molecular target: T1, KRAS^G12C::SOS1 (Homo sapiens, UniProt Q07889); experiment: KRAS G12C::SOS1 protein-protein interaction (PPI) inhibition assay (HTRF binding kit); conditions: not given
T1 sequence (Q07889 1-1333): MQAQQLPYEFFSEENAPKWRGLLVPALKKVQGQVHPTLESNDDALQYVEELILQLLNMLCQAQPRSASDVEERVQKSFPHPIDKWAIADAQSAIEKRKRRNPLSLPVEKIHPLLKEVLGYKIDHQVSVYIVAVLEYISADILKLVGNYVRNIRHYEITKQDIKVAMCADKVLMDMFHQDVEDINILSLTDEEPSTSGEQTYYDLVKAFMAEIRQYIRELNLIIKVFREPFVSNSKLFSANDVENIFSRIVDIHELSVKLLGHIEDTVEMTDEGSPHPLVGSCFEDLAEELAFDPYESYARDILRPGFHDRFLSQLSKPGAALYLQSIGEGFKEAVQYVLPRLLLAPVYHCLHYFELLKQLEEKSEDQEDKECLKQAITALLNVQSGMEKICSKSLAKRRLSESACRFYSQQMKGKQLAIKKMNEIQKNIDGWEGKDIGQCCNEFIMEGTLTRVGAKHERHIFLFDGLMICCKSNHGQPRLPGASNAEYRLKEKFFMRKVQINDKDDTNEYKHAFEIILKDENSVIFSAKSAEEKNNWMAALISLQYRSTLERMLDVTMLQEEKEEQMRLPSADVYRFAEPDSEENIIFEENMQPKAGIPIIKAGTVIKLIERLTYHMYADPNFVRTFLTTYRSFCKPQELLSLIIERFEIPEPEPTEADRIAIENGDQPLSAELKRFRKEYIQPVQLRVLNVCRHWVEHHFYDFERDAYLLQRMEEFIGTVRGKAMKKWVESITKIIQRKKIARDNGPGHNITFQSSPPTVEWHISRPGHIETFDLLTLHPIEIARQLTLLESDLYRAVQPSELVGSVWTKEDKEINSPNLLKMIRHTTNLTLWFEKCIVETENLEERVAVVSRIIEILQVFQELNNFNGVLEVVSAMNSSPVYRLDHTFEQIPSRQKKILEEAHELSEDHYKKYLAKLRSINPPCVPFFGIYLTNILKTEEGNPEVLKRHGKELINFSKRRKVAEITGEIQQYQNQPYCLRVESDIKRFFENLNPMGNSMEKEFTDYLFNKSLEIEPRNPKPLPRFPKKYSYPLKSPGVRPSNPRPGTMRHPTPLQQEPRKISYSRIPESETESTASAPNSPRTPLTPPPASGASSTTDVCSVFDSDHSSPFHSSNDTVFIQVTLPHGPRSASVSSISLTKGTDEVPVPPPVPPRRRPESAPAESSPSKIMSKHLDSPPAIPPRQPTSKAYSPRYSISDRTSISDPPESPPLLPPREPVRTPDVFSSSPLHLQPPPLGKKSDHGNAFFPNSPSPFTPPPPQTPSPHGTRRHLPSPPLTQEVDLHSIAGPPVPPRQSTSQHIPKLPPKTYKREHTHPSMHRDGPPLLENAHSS

| Molecule | IC50 [nM] |
| --- | --- |
| CNCc1ccc(C)cc1-c1ccc([C@@H](C)NC(=O)c2ccc(=O)n(-c3cccnc3F)n2)s1 [Example 402, 1-(2-fluoropyridin-3-yl)-N-[(1R)-1-(5-{5-methyl-2-[(methylamino)methyl]phenyl}thiophen-2-yl)ethyl]-6-oxo-1,6-dihydropyridazine-3-carboxamide] | < 1000 |
| CNCc1ccccc1-c1ccc([C@@H](C)NC(=O)c2nn(-c3cnn(C)c3)c(=O)c3ccsc23)s1 [Example 290, N-[(1R)-1-[5-[2-(methylaminomethyl)phenyl]-2-thienyl]ethyl]-5-(1-methylpyrazol-4-yl)-4-oxo-thieno[2,3-d]pyridazine-7-carboxamide] | < 1000 |
| C[C@@H](NC(=O)c1ccc(=O)n(-c2ccccc2F)c1)c1cccc(C(F)(F)CO)c1F [Example 181, N-[(1R)-1-[3-(1,1-difluoro-2-hydroxy-ethyl)-2-fluoro-phenyl]ethyl]-1-(2-fluorophenyl)-6-oxo-pyridine-3-carboxamide] | < 1000 |
| CNCc1ccc(C)cc1-c1ccc([C@@H](C)NC(=O)c2ccc(=O)n(-c3cccnc3F)c2)s1 [Example 272, 1-(2-fluoro-3-pyridyl)-N-[(1R)-1-[5-[5-methyl-2-(methylaminomethyl)phenyl]-2-thienyl]ethyl]-6-oxo-pyridine-3-carboxamide] | < 1000 |
| C[C@@H](NC(=O)c1cc(N)c(=O)n(-c2ccccc2)n1)c1cc(N)cc(C(F)(F)F)c1 [Example 213, 5-amino-N-[(1R)-1-[3-amino-5-(trifluoromethyl)phenyl]ethyl]-6-oxo-1-phenyl-pyridazine-3-carboxamide] | < 1000 |
| C[C@@H](NC(=O)c1nn(-c2ccccc2F)c(=O)cc1N)c1cc(N)cc(C(F)(F)F)c1 [Example 381, 4-amino-N-[(1R)-1-[3-amino-5-(trifluoromethyl)phenyl]ethyl]-1-(2-fluorophenyl)-6-oxo-pyridazine-3-carboxamide] | < 1000 |
| C[C@@H](NC(=O)c1ccc(=O)n(-c2ccccc2)n1)c1cccc(I)c1 [Example 188, (R)-N-(1-(3-iodophenyl)ethyl)-6-oxo-1-phenyl-1,6-dihydropyridazine-3-carboxamide] | < 1000 |
| C[C@@H](NC(=O)c1ccc(=O)n(-c2cccc(-c3cnnn3C)c2)c1)c1cc(N)cc(C(F)(F)F)c1 [Example 326, N-[(1R)-1-[3-amino-5-(trifluoromethyl)phenyl]ethyl]-1-[3-(3-methyltriazol-4-yl)phenyl]-6-oxo-pyridine-3-carboxamide] | < 1000 |
| CNCc1ccccc1-c1ccc([C@@H](C)NC(=O)c2nn(-c3cnn(C)c3)c(=O)c3cc[nH]c23)s1 [Example 275, N-[(1R)-1-[5-[2-(methylaminomethyl)phenyl]-2-thienyl]ethyl]-5-(1-methylpyrazol-4-yl)-4-oxo-1H-pyrrolo[2,3-d]pyridazine-7-carboxamide] | < 1000 |
| C[C@@H](NC(=O)c1ccc(=O)n(-c2cccnc2F)n1)c1cc(N)cc(C(F)(F)F)c1 [Example 360, N-[(1R)-1-[3-amino-5-(trifluoromethyl)phenyl]ethyl]-1-(2-fluoro-3-pyridyl)-6-oxo-pyridazine-3-carboxamide] | < 1000 |
| C[C@@H](NC(=O)c1ccc(=O)n(-c2cccc(-c3cnco3)c2)n1)c1cc(N)cc(C(F)(F)F)c1 [Example 343, N-[(1R)-1-[3-amino-5-(trifluoromethyl)phenyl]ethyl]-1-(3-oxazol-5-ylphenyl)-6-oxo-pyridazine-3-carboxamide] | < 1000 |
| C[C@@H](NC(=O)c1ccc(=O)n(-c2ccccc2F)n1)c1cccc(Oc2ccccc2)c1 [Example 306, 1-(2-fluorophenyl)-6-oxo-N-[(1R)-1-(3-phenoxyphenyl)ethyl]pyridazine-3-carboxamide] | > 10000 |
| C[C@@H](O)c1cccc(-n2nc(C(=O)N[C@H](C)c3cc(N)cc(C(F)(F)F)c3)ccc2=O)c1 [Example 173, N-[(1R)-1-[3-amino-5-(trifluoromethyl)phenyl]ethyl]-1-[3-[(1R)-1-hydroxyethyl]phenyl]-6-oxo-pyridazine-3-carboxamide] | < 1000 |
| C[C@@H](NC(=O)c1ccc(=O)n(-c2cccc(CO)c2)n1)c1cccc(C(F)(F)CO)c1F [Example 170, N-[(1R)-1-[3-(1,1-difluoro-2-hydroxy-ethyl)-2-fluoro-phenyl]ethyl]-1-[3-(hydroxymethyl)phenyl]-6-oxo-pyridazine-3-carboxamide] | < 1000 |
| C[C@@H](NC(=O)c1ccc(=O)n(-c2cccc(-c3nccs3)c2)n1)c1cc(N)cc(C(F)(F)F)c1 [Example 337, N-[(1R)-1-[3-amino-5-(trifluoromethyl)phenyl]ethyl]-6-oxo-1-(3-thiazol-2-ylphenyl)pyridazine-3-carboxamide] | < 1000 |
| CNCc1ccc(Cl)cc1-c1ccc([C@@H](C)NC(=O)c2ccc(=O)n(-c3cccnc3F)c2)s1 [Example 277, N-[(1R)-1-[5-[5-chloro-2-(methylaminomethyl)phenyl]-2-thienyl]ethyl]-1-(2-fluoro-3-pyridyl)-6-oxo-pyridine-3-carboxamide] | < 1000 |
| CNCc1cc2c(cc1-c1ccc([C@@H](C)NC(=O)c3ccc(=O)n(-c4ccccc4F)c3)s1)CCC2 [Example 273, 1-(2-fluorophenyl)-N-[(1R)-1-[5-[6-(methylaminomethyl)indan-5-yl]-2-thienyl]ethyl]-6-oxo-pyridine-3-carboxamide] | < 1000 |
| C[C@@H](NC(=O)c1ccc(=O)n(-c2ccccc2F)n1)c1ccc(-c2cc(F)ccc2CNCCO)s1 [Example 300, N-[(1R)-1-[5-[5-fluoro-2-[(2-hydroxyethylamino)methyl]phenyl]-2-thienyl]ethyl]-1-(2-fluorophenyl)-6-oxo-pyridazine-3-carboxamide] | < 1000 |
| C[C@@H](NC(=O)c1nn(-c2ccccc2F)c(=O)c2sccc12)c1cc(N)cc(C(F)(F)F)c1 [Example 312, N-[(1R)-1-[3-amino-5-(trifluoromethyl)phenyl]ethyl]-6-(2-fluorophenyl)-7-oxo-thieno[2,3-d]pyridazine-4-carboxamide] | < 1000 |
| Cc1cc(C(=O)N[C@H](C)c2cc(N)cc(C(F)(F)F)c2)nn(-c2ccccc2)c1=O [Example 214, N-[(1R)-1-[3-amino-5-(trifluoromethyl)phenyl]ethyl]-5-methyl-6-oxo-1-phenyl-pyridazine-3-carboxamide] | < 1000 |
| C[C@H](NC(=O)c1ccc(=O)n(-c2ccccc2F)n1)c1cc(N)cc(C(F)(F)F)n1 [Example 394, N-[(1S)-1-[4-amino-6-(trifluoromethyl)-2-pyridyl]ethyl]-1-(2-fluorophenyl)-6-oxo-pyridazine-3-carboxamide] | > 10000 |
| CC(=O)Nc1cc(=O)n(-c2ccccc2)nc1C(=O)N[C@H](C)c1cc(N)cc(C(F)(F)F)c1 [Example 313, 4-acetamido-N-[(1R)-1-[3-amino-5-(trifluoromethyl)phenyl]ethyl]-6-oxo-1-phenyl-pyridazine-3-carboxamide] | < 1000 |
| CCNC(=O)c1cccc(-n2nc(C(=O)N[C@H](C)c3cc(N)cc(C(F)(F)F)c3)ccc2=O)c1F [Example 234, (R)-N-(1-(3-amino-5-(trifluoromethyl)phenyl)ethyl)-1-(3-(ethylcarbamoyl)-2-fluorophenyl)-6-oxo-1,6-dihydropyridazine-3-carboxamide] | < 1000 |
| C[C@@H](NC(=O)c1ccc(=O)n(-c2cccc(C(=O)N3CCOCC3)c2F)n1)c1cc(N)cc(C(F)(F)F)c1 [Example 233, (R)-N-(1-(3-amino-5-(trifluoromethyl)phenyl)ethyl)-1-(2-fluoro-3-(morpholine-4-carbonyl)phenyl)-6-oxo-1,6-dihydropyridazine-3-carboxamide] | < 1000 |

same assay, conditions: read-out: KRAS ^G12C::SOS1 PPI assay (IC50 range, Grade); maximum concentration 3 µM, 8 concentrations, three replicates

| Molecule | IC50 [nM] |
| --- | --- |
| N-[(1R)-1-[3-amino-5-(trifluoromethyl)phenyl]ethyl]-1-(4-fluorophenyl)-6-oxo-pyridazine-3-carboxamide [Example 172] | < 1000 |
| N-[(1R)-1-[3-amino-5-(trifluoromethyl)phenyl]ethyl]-1-(3-isoxazol-4-ylphenyl)-6-oxo-pyridazine-3-carboxamide [Example 322] | < 1000 |

Source: patent publication EP4667458A1 (Kanaph Therapeutics Inc., priority 2023, dated 2024)
